This is an account of results in the SangsterLogP compilation.

The data set can be described thus: method code SF-HPLC, from DOI: 10.1080/10826079808000494. As to conditions: pH 6.9.

In the case of `CC1=C(C#N)C(C)(C)C(C#N)=C(C)N1`, the log distribution coefficient (logD) (as a rule, the decadic logarithm of the distribution of all forms, ionised or not, between an organic phase and buffer at a given pH) worked out at 2.47.
In turn, `COC(=O)C1=C(C)NC(C)=C(C(=O)OC(C)C)C1c1cccc2c1OCO2` (stereo not given) displayed a log distribution coefficient (logD) of 3.75.
The same measure for `CCOC(=O)C1=C(C)NC(C)=C(C(=O)OC)C1c1ccc(OC)c(OC)c1` (stereo not given): 3.2; for `CCOC(=O)C1=C(C)NC(C)=C(C(=O)OC)C1c1cc(OC)c(OC)c(OC)c1` (stereo not given): 2.99; for `CCOC(=O)C1=C(C)NC(C)=C(C(=O)OC)C1c1cccc(OC)c1OC` (stereo not given): 3.18.
The compound `CCOC(=O)C1=C(C)NC(C)=C(C(=O)OC)C1c1cc(OC)c(O)c(OC)c1` (stereo not given) gave a logD of 2.43.
Take `COC(=O)C1=C(C)NC(C)=C(C(=O)OCc2cccnc2)C1c1cccc2c1OCO2` (stereo not given): the logD amounted to 3.21.
The compound `CCOC(=O)C1=C(C)NC(C)=C(C(=O)OC(C)C)C1c1cccc2c1OCO2` (stereo not given) yielded a log distribution coefficient (logD) of 4.31.
Compound `CCOC(=O)C1=C(C)NC(C)=C(C(=O)OC)C1c1ccccc1` (stereo not given) had a pH-dependent lipophilicity (logD) of 3.74.
On to `COCCOC(=O)C1=C(C)NC(C)=C(C(=O)OC(C)C)C1c1cccc2c1OCO2` (stereo not given), for which the logD amounted to 3.54.
In the case of `CCOC(=O)C1=C(C)NC(C)=C(C(=O)OC)C1c1ccccc1OCOC` (stereo not given), the logD was 3.38. The logD values of the last two compounds are within 0.2 log units of each other.
Turning to `CCOC(=O)C1=C(C)NC(C)=C(C(=O)OC)C1c1cc(OC)cc(OC)c1` (stereo not given), the logD came to 3.68.
Compound `CCOC(=O)C1=C(C)NC(C)=C(C(=O)OCC)C1c1cccc2c1OCO2` registered a logD of 3.92.
Compound `COC(=O)C1=C(C)NC(C)=C(C(=O)OC)C1c1cccc2c1OCO2` came in with a logD of 3.06.
Compound `CCOC(=O)C1=C(C)NC(C)=C(C(=O)OC)C1c1cccc2c1OCCO2` (stereo not given) yielded a logD of 3.17. This logD and that of the compound before are within 0.2 log units of each other.
